≈ marks a conversion by molar mass, not a printed value.
Legend:
Format in all cases: functional, cell-based
A2780 = experiment: Cytotoxicity against human A2780 cells after 48 hrs by microplate assay; conditions: A2780, 48 h
[1] = Cytotoxicity against human drug-sensitive […] cells after 48 hrs by microplate assay
[2] = Cytotoxicity against human drug-resistant A2780DDP cells after 48 hrs by microplate assay
SK-BR-3 = experiment: Cytotoxicity against human SKBR3 cells after 48 hrs by microplate assay; conditions: SK-BR-3, 48 h
PC-3 = experiment: Cytotoxicity against human PC3 cells after 48 hrs by microplate assay; conditions: PC-3, 48 h
HCT-116 = experiment: Cytotoxicity against human HCT116 cells after 48 hrs by microplate assay; conditions: HCT-116, 48 h
LX-1 = experiment: Cytotoxicity against human LX1 cells after 48 hrs by microplate assay; conditions: LX-1, 48 h
K562 = experiment: Cytotoxicity against human K562 cells after 48 hrs by microplate assay; conditions: K562, 48 h
ABAE = experiment: Cytotoxicity against ABAE cells after 48 hrs by microplate assay; conditions: Bos taurus
HT-29 = experiment: Cytotoxicity against human HT-29 cells after 48 hrs by microplate assay; conditions: HT-29, 48 h

Q: With C=CC(=C)CC[C@]1(C)[C@H]2C[C@H](OC(=O)C(C)CC)C=C3[C@H](OC(C)=O)O[C@H](OC(C)=O)[C@@]32[C@H](OC)C[C@@H]1C (relative stereo) as the compound, how does the IC50 (A2780) read?
A: Its IC50 is 2.9 µg/mL (≈ 5.44 µM).

Q: And the IC50 [1]?
A: Its IC50 is 1.4 µg/mL (≈ 2.63 µM).

Q: What about the IC50 [2] of the same compound?
A: The IC50 was 2.9 µg/mL (≈ 5.44 µM).

Q: What about the IC50 (SK-BR-3) of the same compound?
A: The IC50 was 3.5 µg/mL (≈ 6.57 µM).

Q: What about the IC50 (PC-3) of the same compound?
A: Its IC50 is 3 µg/mL (≈ 5.63 µM).

Q: What about the IC50 (HCT-116) of the same compound?
A: The IC50 was 1 µg/mL (≈ 1.88 µM).

Q: And the IC50 (LX-1)?
A: Its IC50 is 1.2 µg/mL (≈ 2.25 µM).

Q: What about the IC50 (K562) of the same compound?
A: The IC50 was 1.4 µg/mL (≈ 2.63 µM).

Q: What about the IC50 (ABAE) of the same compound?
A: The IC50 was 0.8 µg/mL (≈ 1.5 µM).

Q: And the IC50 (HT-29)?
A: Its IC50 is 1.3 µg/mL (≈ 2.44 µM).

Q: With C=CC(=C)CC[C@]1(C)[C@H]2C[C@H](OC(=O)C(C)CC)C=C3[C@H](OC(C)=O)O[C@H](OC(C)=O)[C@@]32[C@H](O)C[C@@H]1C (relative stereo) as the compound, how does the IC50 (A2780) read?
A: Its IC50 is 2.9 µg/mL (≈ 5.59 µM).

Q: And the IC50 [1]?
A: The IC50 was 1.2 µg/mL (≈ 2.31 µM).

Q: And the IC50 [2]?
A: Its IC50 is 2.1 µg/mL (≈ 4.05 µM).

Q: What about the IC50 (SK-BR-3) of the same compound?
A: The IC50 was 1.4 µg/mL (≈ 2.7 µM).

Q: And the IC50 (PC-3)?
A: The IC50 was 2.8 µg/mL (≈ 5.4 µM).

Q: And the IC50 (HCT-116)?
A: The IC50 was 1.6 µg/mL (≈ 3.08 µM).

Q: And the IC50 (LX-1)?
A: The IC50 was 1.1 µg/mL (≈ 2.12 µM).

Q: What about the IC50 (K562) of the same compound?
A: The IC50 was 1.4 µg/mL (≈ 2.7 µM).

Q: What about the IC50 (ABAE) of the same compound?
A: The IC50 was 0.8 µg/mL (≈ 1.54 µM).

Q: And the IC50 (HT-29)?
A: Its IC50 is 1 µg/mL (≈ 1.93 µM).

Q: What does the source list for C=C/C(C)=C/C[C@]1(C)[C@H]2C[C@H](OC(=O)C(C)CC)C=C3[C@H](OC(C)=O)O[C@H](OC(C)=O)[C@@]32[C@H](O)C[C@@H]1C (relative stereo) [CASEARLUCIN A]?
A: IC50 (A2780): 3 µg/mL (≈ 5.78 µM); IC50 [1]: 1 µg/mL (≈ 1.93 µM); IC50 [2]: 2.8 µg/mL (≈ 5.4 µM); IC50 (SK-BR-3): 1.2 µg/mL (≈ 2.31 µM); IC50 (PC-3): 2.5 µg/mL (≈ 4.82 µM); IC50 (HCT-116): 1.3 µg/mL (≈ 2.51 µM); IC50 (LX-1): 1 µg/mL (≈ 1.93 µM); IC50 (K562): 1.1 µg/mL (≈ 2.12 µM); IC50 (ABAE): 0.8 µg/mL (≈ 1.54 µM); IC50 (HT-29): 0.8 µg/mL (≈ 1.54 µM)

Q: For C=C/C(C)=C/C[C@]1(C)[C@H]2C[C@H](OC(=O)C(C)CC)C=C3[C@H](OC(C)=O)O[C@H](OC(C)=O)[C@@]32[C@H](OC(C)=O)C[C@@H]1C (relative stereo) [CASEARLUCIN C], which IC50 (A2780) is on record?
A: Its IC50 is 2.8 µg/mL (≈ 4.99 µM).

Q: What about the IC50 [1] of the same compound?
A: Its IC50 is 7.7 µg/mL (≈ 13.7 µM).

Q: And the IC50 [2]?
A: The IC50 was 9.6 µg/mL (≈ 17.1 µM).

Q: And the IC50 (SK-BR-3)?
A: The IC50 was 14 µg/mL (≈ 25 µM).

Q: What about the IC50 (PC-3) of the same compound?
A: Its IC50 is 15 µg/mL (≈ 26.8 µM).

Q: And the IC50 (HCT-116)?
A: The IC50 was 4.5 µg/mL (≈ 8.03 µM).

Q: What about the IC50 (LX-1) of the same compound?
A: The IC50 was 5 µg/mL (≈ 8.92 µM).

Q: And the IC50 (K562)?
A: The IC50 was 3.8 µg/mL (≈ 6.78 µM).

Q: What about the IC50 (ABAE) of the same compound?
A: The IC50 was 3.6 µg/mL (≈ 6.42 µM).

Q: What about the IC50 (HT-29) of the same compound?
A: Its IC50 is 12 µg/mL (≈ 21.4 µM).

Q: What does the source list for C=CC(=C)CC[C@]1(C)[C@H]2C[C@H](OC(=O)C(C)CC)C=C3[C@H](OC(C)=O)O[C@H](OC(C)=O)[C@@]32[C@H](OC(C)=O)C[C@@H]1C (relative stereo) [CASEARLUCIN D]?
A: IC50 (A2780): 2.9 µg/mL (≈ 5.17 µM); IC50 [1]: 9.4 µg/mL (≈ 16.8 µM); IC50 [2]: 4.6 µg/mL (≈ 8.2 µM); IC50 (SK-BR-3): 10 µg/mL (≈ 17.8 µM); IC50 (PC-3): 13 µg/mL (≈ 23.2 µM); IC50 (HCT-116): 4.7 µg/mL (≈ 8.38 µM); IC50 (LX-1): 3.9 µg/mL (≈ 6.96 µM); IC50 (K562): 3.9 µg/mL (≈ 6.96 µM); IC50 (ABAE): 4.1 µg/mL (≈ 7.31 µM); IC50 (HT-29): 6.2 µg/mL (≈ 11.1 µM)

Q: For C=CC(=C)CC[C@]1(C)[C@H]2C[C@@H](OC(=O)C(C)CC)C=C3[C@H](OC(C)=O)O[C@H](OC(C)=O)[C@@]32[C@H](OC)C[C@@H]1C (relative stereo) [CASEARLUCIN E], which IC50 (A2780) is on record?
A: Its IC50 is 2.9 µg/mL (≈ 5.44 µM).

Q: What about the IC50 [1] of the same compound?
A: Its IC50 is 3 µg/mL (≈ 5.63 µM).

Q: What about the IC50 [2] of the same compound?
A: The IC50 was 4.1 µg/mL (≈ 7.7 µM).

Q: And the IC50 (SK-BR-3)?
A: Its IC50 is 3.9 µg/mL (≈ 7.32 µM).

Q: What about the IC50 (PC-3) of the same compound?
A: The IC50 was 4.3 µg/mL (≈ 8.07 µM).

Q: What about the IC50 (HCT-116) of the same compound?
A: Its IC50 is 1.8 µg/mL (≈ 3.38 µM).

Q: And the IC50 (LX-1)?
A: Its IC50 is 1.8 µg/mL (≈ 3.38 µM).

Q: And the IC50 (K562)?
A: The IC50 was 1.7 µg/mL (≈ 3.19 µM).

Q: And the IC50 (ABAE)?
A: Its IC50 is 0.9 µg/mL (≈ 1.69 µM).

Q: And the IC50 (HT-29)?
A: The IC50 was 2.8 µg/mL (≈ 5.26 µM).

From ChEMBL document CHEMBL1159313, “Structure and stereochemistry of new cytotoxic clerodane diterpenoids from the bark of Casearia lucida from the Madagascar rainforest” (J Nat Prod, 2002)
